Read-outs that look alike come from different tables or passages of the source.
Tests used:
[1] = Tissue distribution in CD-1 mice after single intragastric administration; assay type: in vivo; conditions: mouse, oral, male CD-1 mice, 10 mg/kg intragastric
Experimental: Mice: CD-1 mice, SPF grade, 9, male, weighting 18 to 22 g (source: SPF (Beijing) Biotechnology Co., Ltd., certificate number: 110324200103036532).
Dispensing: After accurately weighing compound L015, 20% solutol of the required volume was added thereto first, sonicated for 20 min and stirred for 1.5 hours until no visible particles were visible to the naked eye, and the middle layer of the drug solution was taken for drug administration. 2 parts of the top, middle, and bottom layers of the suspension were taken, and 2 parts of the middle layer of the clarified solution were taken, and 100 μL of each part was accurately aspirated into a 1.5 mL EP tube. Samples were taken before administration, and after sampling, the samples were stored in a −80° C. refrigerator and sent together with the plasma samples for bioanalytical test.
Animals were randomly divided into 3 groups. Compound L015 was administered at 3 different time points, with 3 animals per group, all males. All mice were given a single intragastric administration with an administration volume of 10 mL/kg. The specific grouping and administration information is as follows:
After the administration was completed, the animals in each group were anesthetized by intraperitoneal injection of 1% pentobarbital sodium (the administration volume was 0.06 mL/10 g) 5 minutes before their respective time points, and about 0.3 mL of blood was collected in an anticoagulant EP tube (containing 4 μL of EDTA-K2, 375 mg/mL), which was gently inverted for 3 times and stored in an ice box (no more than 30 minutes), centrifuged at 4° C. for 10 minutes with 3500×g. The supernatant was transferred to a labeled EP tube for bioanalytical test. If it could not be analyzed the same day, it was stored at −80° C. until further testing (be careful not to perform multiple freezing/thawing processes).
After the blood was taken, the abdominal cavity was quickly opened, and the abdominal aorta and vein of the […] were cut. After the blood was drained, the heart, liver, spleen, lung, kidney, and brain of the rat were taken, respectively. After the tissue was taken, the tissue was immediately rinsed with normal saline to remove any residual blood on the surface, blotted dry with filter paper, and the connective tissue was removed and weighed. The homogenization tube was placed in an ice water bath, and the tissue sample homogenate was thoroughly homogenized with a high-speed homogenizer and sent for bioanalytical test. If it could not be analyzed the same day, it was stored at −80° C. until further testing (be careful not to perform multiple thawing/freezing processes).
1.5 Sample analysis method 1.5.1 Experimental instruments: • High performance liquid chromatography pump (pump): Exion LC AD Pump, Sciex Company • Auto sampler: Exion LC AD Autosampler, Sciex Company • Column oven: Exion LC AD Column Oven, Sciex Company • Mass spectrometer: AB Sciex Qtrap 4500 • High-speed refrigerated centrifuge (centrifuge): Thermo Fisher, ST16R, GG1206085-093 • Analytical balance (electronic balance): Mettler Toledo, MS-105D, GG1206363 • Micro vortex (vortex): Shanghai Huxi Analysis Instrument Factory, WH-2, GG1206487 1.5.2 Experimental materials: mouse plasma and tissue
Sample pretreatment process: 3 μL of working solution was taken, and 57 μL of blank matrix was added into a 1.5 mL centrifuge tube, and then 240 μL of acetonitrile solution containing 200 ng/mL tolbutamide and labetalol mixed with 0.1% formic acid was added to precipitate protein. The mixture was vortexed and mixed for 1 minute, and then centrifuged in a 4° C. centrifuge at 13000 rpm for 15 minutes. 100 μL of supernatant was taken and added to another 96 deep well plate, and 100 μL of methanol:water (1:3, v:v) solution containing 0.1% FA was added. The mixture was mixed with shaking for 1 min, and centrifuged at 3500 rpm for 5 min in a 96-well plate centrifuge and the sample was injected directly. […]

[2] = biological target: TRPC5 channel (Homo sapiens (Human), UniProt Q9UL62); assay: TRPC5 calcium flux assay (Fluo-4, FLIPR) in TRPC5-HEK 293 cells; assay type: cell-based; conditions: 0.3 nM Englerin A
Chain of TRPC5 channel (Q9UL62 whole entry): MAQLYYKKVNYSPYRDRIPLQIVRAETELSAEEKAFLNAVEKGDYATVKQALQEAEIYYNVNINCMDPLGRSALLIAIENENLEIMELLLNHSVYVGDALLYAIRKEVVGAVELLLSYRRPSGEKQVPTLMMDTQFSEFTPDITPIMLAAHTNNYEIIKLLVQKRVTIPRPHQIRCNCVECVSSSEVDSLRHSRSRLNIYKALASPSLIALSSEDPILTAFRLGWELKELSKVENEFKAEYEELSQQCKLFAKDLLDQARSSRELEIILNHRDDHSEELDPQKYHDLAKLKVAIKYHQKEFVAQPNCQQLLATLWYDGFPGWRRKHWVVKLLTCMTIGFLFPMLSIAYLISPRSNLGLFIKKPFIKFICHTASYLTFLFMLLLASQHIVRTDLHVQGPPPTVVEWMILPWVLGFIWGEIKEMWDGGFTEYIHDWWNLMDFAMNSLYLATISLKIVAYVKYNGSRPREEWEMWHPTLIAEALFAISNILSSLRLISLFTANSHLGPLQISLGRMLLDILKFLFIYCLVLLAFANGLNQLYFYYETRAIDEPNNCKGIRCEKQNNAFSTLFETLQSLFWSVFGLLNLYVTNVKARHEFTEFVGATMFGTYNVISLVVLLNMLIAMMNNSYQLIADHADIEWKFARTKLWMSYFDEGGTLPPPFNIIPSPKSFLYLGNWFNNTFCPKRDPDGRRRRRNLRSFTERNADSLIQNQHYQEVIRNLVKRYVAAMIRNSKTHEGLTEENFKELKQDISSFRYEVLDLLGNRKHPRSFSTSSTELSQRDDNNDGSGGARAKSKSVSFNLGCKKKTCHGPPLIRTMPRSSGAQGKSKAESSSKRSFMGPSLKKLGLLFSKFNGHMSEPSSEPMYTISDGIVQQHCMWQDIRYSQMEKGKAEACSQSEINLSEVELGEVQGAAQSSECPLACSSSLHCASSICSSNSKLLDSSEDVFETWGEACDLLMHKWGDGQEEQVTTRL
Experimental: TRPC5 is a type of non-selective cation channel with permeability to calcium ions. […] Fluo-4 AM fluorescence dye was used to indirectly reflect the effect of the compound on TRPC5 channel by detecting intracellular Ca^2+ in TRPC5-HEK 293 cells.
• Revival solution: 100% high glucose DMEM • Selection medium: high glucose DMEM+10% FBS+1% P/S+1% HEPES+Blasticidin (5 μg/mL)+Hygromycine (50 μg/mL) • Induction medium: high glucose DMEM+10% FBS+1% P/S+1% HEPES+Doxycycline (1 μg/mL)
(§1) 14 hours before the real-time fluorescence experiment, cells were washed with PBS and digested with trypsin-EDTA. Cells were diluted to 200,000 cells/mL with induction medium and seeded onto a 96-well black wall bottom transparent plate coated with poly-D-lysine (PDL) (stock solution of 10 mg/mL, final concentration of 10 μg/mL) at 100 μL/well, i.e., 20,000 cells/well.
500 mL of external solution for detecting TRPC5 calcium signals: 4.0908 g of NaCl, 0.1864 g of KCl, 0.111 g of CaCl2, 0.0476 g of MgCl2, 0.9 g of glucose, 1.1915 g of HEPES (2-[4-(2-hydroxyethyl)piperazin-1-yl]ethanesulfonic acid).
Calcium fluorescent dye: an external solution for detecting TRPC5 calcium signals containing Fluo-4 with a final concentration of 4 μM (containing 0.5% BSA)
Positive inhibitor concentration: 100 nM
The dose-effect diagram was used to calculate AUC (area under the curve of the curve formed by the calcium flux signal), and the data and the log of the compound concentration were collected. The IC50 value was calculated using log[Inhibitor] vs. response Variable slope.
TRPC5 is a type of non-selective cation channel with permeability to calcium ions. […] Fluo-4 AM fluorescence dye was used to indirectly reflect the effect of the compound on TRPC5 channel by detecting intracellular […] in TRPC5-HEK 293 cells.
1. Cell culture 1.1 Revival of TRPC5-HEK 293 cells • Revival solution: 100% high glucose DMEM • Selection medium: high glucose DMEM+10% FBS+1% P/S+1% HEPES+Blasticidin (5 μg/mL)+Hygromycine (50 μg/mL) • Induction medium: high glucose DMEM+10% FBS+1% P/S+1% HEPES+Doxycycline (1 μg/mL)
as §1, with “trypsin-EDTA (TE).” for “trypsin-EDTA.”

`O=C(c1ccc(F)cc1C(F)(F)F)c1cnc2n1CCN(c1cn[nH]c(=O)c1Cl)C2` [Compound 1-6, 4-chloro-5-(3-(4-fluoro-2-(trifluoromethyl)benzoyl)-5,6-dihydroimidazo[1,2-a]pyrazin-7(8H)-yl)pyridazin-3(2H)-one] showed a concentration at 0.167 h ([1]; brain, 20% solutol, read-out: concentration in brain) of 706 ng/g, a concentration at 1 h ([1]; brain, 20% solutol, 1 hour) of 161 ng/g and a concentration at 10 h ([1]; brain, 20% solutol, 10 hours) of 25.9 ng/g. The Kp at 0.167 h ([1]; brain, read-out: brain, times of the plasma concentration) was 0.05, the Kp at 1 h ([1]; brain, 1 hour, read-out: brain, times of the plasma concentration) was 0.19 and the Kp at 10 h ([1]; brain, 10 hours, read-out: brain, times of the plasma concentration) was 0.09. It also gave a concentration at 0.167 h ([1]; kidney, 20% solutol, read-out: concentration in kidney) of 1470 ng/g, a Kp at 0.167 h ([1]; kidney, read-out: kidney, times of the plasma concentration) of 2.5 and a Kp at 1 h ([1]; kidney, 1 hour, read-out: kidney, times of the plasma concentration) of 2.51. The Kp at 10 h ([1]; kidney, 10 hours, read-out: kidney, times of the plasma concentration) was 1.5, the concentration at 0.167 h ([1]; liver, 20% solutol, read-out: concentration in liver) was 3260 ng/g and the Kp at 0.167 h ([1]; liver, read-out: liver, times of the plasma concentration) was 5.55. The Kp at 1 h ([1]; liver, 1 hour, read-out: liver, times of the plasma concentration) was 4.53, the Kp at 10 h ([1]; liver, 10 hours, read-out: liver, times of the plasma concentration) was 5.05 and the IC50 ([2]; Table 1, read-out: TRPC5 inhibitory activity, IC50) was 0.0115 µM. The IC50 ([2]; Table 11, read-out: TRPC5 inhibitory activity, IC50) was 0.0115 µM.

— patent US20240317755A1, “HETEROCYCLIC COMPOUND, AND INTERMEDIATE THEREOF, PREPARATION METHOD THEREFOR AND USE THEREOF” (WUHAN LL SCIENCE AND TECHNOLOGY DEVELOPMENT CO., LTD., priority 2021, published 2024)
